# Measurements reported in patent US10206909B2, “3-(1H-pyrrolo[2,3-B]pyridin-2-yl)-1H-pyrazolo[4,3-B]pyridines and therapeutic uses thereof” (Samumed, LLC, priority 2015, dated 2019).
# What was measured:
# Type in all cases: cell-based
# [1] = system: Wnt activity (Sp5-Luc reporter, SW480 colon carcinoma cells); assay: Wnt activity screening assay: Sp5-Luc reporter gene assay in SW480 cells; conditions: Homo sapiens; for EC50: SW480 cells, overnight incubation; for inhibition at 10 µM: given where EC50 >10 μM, SW480, read-out: percent inhibition at 10 μM
# Procedure, shortened: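 SW480 cells stably carrying Sp5-Luc reporter (eight TCF/LEF sites) plated at 4,000/well in 1% FBS medium with compound (10-point 1:3 series from 10 μM, 0.1% DMSO) overnight at 37 °C. BrightGlo luminescence normalized to DMSO; EC50 by four-parameter fit, else % inhibition at 10 μM.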
# SW480 colon cancer cells = assay: Cell viability assay (CellTiter-Blue); conditions: Homo sapiens; for EC50: 96 h, SW480 cell viability, four days, CellTiter-Blue; for inhibition at 10 µM: given where EC50 >10 μM, SW480 viability, read-out: percent inhibition at 10 μM
# Procedure, shortened: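 SW480 colon cancer cells (~2×10^3/well) exposed to 8-point 1:3 dilutions from 10 μM to 0.0045 μM for four days at 37 °C/5% CO2. Viability read by resazurin (CellTiter-Blue) fluorescence after ~3 h, Ex 560/Em 590 nm. EC50 from non-linear regression; percent inhibition at 10 μM given when EC50 >10 μM.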
# [2] = system: primary human fibroblasts derived from IPF patients (LL29 cells); assay: Inhibition of the fibrotic process: αSMA staining in TGF-β1 treated fibroblasts; conditions: Fibroblast; for EC50: 96 h, LL29 cells, TGF-β1 20 ng/mL, 4 days, % αSMA positive cells; for inhibition at 10 µM: given where EC50 >10 μM, LL29, αSMA, read-out: percent inhibition at 10 μM
# Procedure, shortened: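 IPF-derived LL29 fibroblasts in F12 with 1% FBS dosed with compound (11-point, 10 μM to 1.87 nM, 0.1% DMSO), then 20 ng/mL TGF-β1 after 1 h, and cultured 4 days at 37 °C. αSMA-positive cell fraction imaged after excluding SYTOX-positive cells, normalized to TGF-β1/DMSO wells; EC50 by non-linear regression, % inhibition at 10 μM if EC50 >10 μM.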
Compound,EC50 [1] [µM],EC50 (SW480 colon cancer cells) [µM],inhibition at 10 µM [1] [%],EC50 [2] [nM],inhibition at 10 µM (SW480 colon cancer cells) [%],inhibition at 10 µM [2] [%]
"CCCCC(=O)Nc1cncc(-c2ccc3[nH]nc(-c4cc5c(N6CCCCC6)ccnc5[nH]4)c3n2)c1 [Compound 187, N-(5-(3-(4-(Piperidin-1-yl)-1H-pyrrolo[2,3-b]pyridin-2-yl)-1H-pyrazolo[4,3-b]pyridin-5-yl)pyridin-3-yl)pentanamide]",> 10,3.53,14.3,4880,–,–
"CC(C)Nc1cncc(-c2ccc3[nH]nc(-c4cc5c(-c6cccnc6)ccnc5[nH]4)c3n2)c1 [Compound 96, N-Isopropyl-5-(3-(4-(pyridin-3-yl)-1H-pyrrolo[2,3-b]pyridin-2-yl)-1H-pyrazolo[4,3-b]pyridin-5-yl)pyridin-3-amine]",0.255,> 10,–,> 10000,0,0
"FC1(F)CCN(Cc2cncc(-c3ccc4[nH]nc(-c5cc6c(-c7cccnc7)ccnc6[nH]5)c4n3)c2)C1 [Compound 110, 5-(5-((3,3-Difluoropyrrolidin-1-yl)methyl)pyridin-3-yl)-3-(4-(pyridin-3-yl)-1H-pyrrolo[2,3-b]pyridin-2-yl)-1H-pyrazolo[4,3-b]pyridine]",> 10,> 10,47.7,213,12.3,–
"Fc1ccc(-c2ccnc3[nH]c(-c4n[nH]c5ccc(-c6cncnc6)nc45)cc23)cc1 [Compound 55, 3-(4-(4-Fluorophenyl)-1H-pyrrolo[2,3-b]pyridin-2-yl)-5-(pyrimidin-5-yl)-1H-pyrazolo[4,3-b]pyridine]",> 10,> 10,32,> 10000,20.5,0
"CN(C)Cc1cncc(-c2ccc3[nH]nc(-c4cc5c(N6CCCCC6)ccnc5[nH]4)c3n2)c1 [Compound 181, N,N-Dimethyl-1-(5-(3-(4-(piperidin-1-yl)-1H-pyrrolo[2,3-b]pyridin-2-yl)-1H-pyrazolo[4,3-b]pyridin-5-yl)pyridin-3-yl)methanamine]",> 10,> 10,4.1,7780,47.5,–
"c1cncc(-c2ccnc3[nH]c(-c4n[nH]c5ccc(-c6ccncc6)nc45)cc23)c1 [Compound 102, 3-(4-(Pyridin-3-yl)-1H-pyrrolo[2,3-b]pyridin-2-yl)-5-(pyridin-4-yl)-1H-pyrazolo[4,3-b]pyridine]",> 10,> 10,9.5,> 10000,10,0
"Fc1cccc(-c2ccnc3[nH]c(-c4n[nH]c5ccc(-c6cccnc6)nc45)cc23)c1 [Compound 4, 3-(4-(3-Fluorophenyl)-1H-pyrrolo[2,3-b]pyridin-2-yl)-5-(pyridin-3-yl)-1H-pyrazolo[4,3-b]pyridine]",> 10,> 10,47.3,144,6.4,–
"c1ncc(-c2ccc3[nH]nc(-c4cc5c(N6CCCCC6)ccnc5[nH]4)c3n2)cn1 [Compound 195, 3-(4-(Piperidin-1-yl)-1H-pyrrolo[2,3-b]pyridin-2-yl)-5-(pyrimidin-5-yl)-1H-pyrazolo[4,3-b]pyridine]",> 10,> 10,12.6,2040,22.9,–
"CCNCc1cncc(-c2ccc3[nH]nc(-c4cc5cccnc5[nH]4)c3n2)c1 [Compound 258, N-((5-(3-(1H-Pyrrolo[2,3-b]pyridin-2-yl)-1H-pyrazolo[4,3-b]pyridin-5-yl)pyridin-3-yl)methyl)ethanamine]",3.78,2.81,–,1580,–,–
"CC(C)CC(=O)Nc1cncc(-c2ccc3[nH]nc(-c4cc5c(N6CCN(C)CC6)ccnc5[nH]4)c3n2)c1 [Compound 226, 3-Methyl-N-(5-(3-(4-(4-methylpiperazin-1-yl)-1H-pyrrolo[2,3-b]pyridin-2-yl)-1H-pyrazolo[4,3-b]pyridin-5-yl)pyridin-3-yl)butanamide]",3.45,1.55,–,1760,–,–
"CN(C)Cc1cncc(-c2ccc3[nH]nc(-c4cc5cccnc5[nH]4)c3n2)c1 [Compound 265, 1-(5-(3-(1H-Pyrrolo[2,3-b]pyridin-2-yl)-1H-pyrazolo[4,3-b]pyridin-5-yl)pyridin-3-yl)-N,N-dimethylmethanamine]",> 10,4.21,20.6,3200,–,–
"FC1(F)CCN(Cc2cncc(-c3ccc4[nH]nc(-c5cc6cccnc6[nH]5)c4n3)c2)C1 [Compound 278, 5-(5-((3,3-Difluoropyrrolidin-1-yl)methyl)pyridin-3-yl)-3-(1H-pyrrolo[2,3-b]pyridin-2-yl)-1H-pyrazolo[4,3-b]pyridine]",0.104,0.345,–,86,–,–
"Nc1cncc(-c2ccc3[nH]nc(-c4cc5c(-c6ccncc6)ccnc5[nH]4)c3n2)c1 [Compound 115, 5-(3-(4-(Pyridin-4-yl)-1H-pyrrolo[2,3-b]pyridin-2-yl)-1H-pyrazolo[4,3-b]pyridin-5-yl)pyridin-3-amine]",> 10,> 10,24.4,> 10000,17.5,28.8
"Cc1ccncc1-c1ccc2[nH]nc(-c3cc4c(N5CCCCC5)ccnc4[nH]3)c2n1 [Compound 173, 5-(4-Methylpyridin-3-yl)-3-(4-(piperidin-1-yl)-1H-pyrrolo[2,3-b]pyridin-2-yl)-1H-pyrazolo[4,3-b]pyridine]",2.36,> 10,–,> 10000,49.2,10.6

# Now from value to compound, other results behind:
EC50 [1] [µM],EC50 (SW480 colon cancer cells) [µM],Compound,inhibition at 10 µM [1] [%],EC50 [2] [nM],inhibition at 10 µM (SW480 colon cancer cells) [%],inhibition at 10 µM [2] [%]
> 10,> 10,"c1csc(-c2ccnc3[nH]c(-c4n[nH]c5ccc(-c6ccncc6)nc45)cc23)c1 [Compound 354, 5-(Pyridin-4-yl)-3-(4-(thiophen-2-yl)-1H-pyrrolo[2,3-b]pyridin-2-yl)-1H-pyrazolo[4,3-b]pyridine]",14.6,2250,39.8,–
3.64,> 10,"c1csc(-c2ccnc3[nH]c(-c4n[nH]c5ccc(-c6cncc(OC7CCCCC7)c6)nc45)cc23)c1 [Compound 703, 5-(5-(Cyclohexyloxy)pyridin-3-yl)-3-(4-(thiophen-2-yl)-1H-pyrrolo[2,3-b]pyridin-2-yl)-1H-pyrazolo[4,3-b]pyridine]",–,1620,52.9,–
> 10,> 10,"c1cnc2[nH]c(-c3n[nH]c4ccc(-c5cncnc5)nc34)cc2c1 [Compound 279, 5-(Pyrimidin-5-yl)-3-(1H-pyrrolo[2,3-b]pyridin-2-yl)-1H-pyrazolo[4,3-b]pyridine]",8,> 10000,14.3,0
> 10,> 10,"Fc1cccc(-c2ccnc3[nH]c(-c4n[nH]c5ccc(-c6cncc(OCc7ccccc7)c6)nc45)cc23)c1 [Compound 518, 5-(5-(Benzyloxy)pyridin-3-yl)-3-(4-(3-fluorophenyl)-1H-pyrrolo[2,3-b]pyridin-2-yl)-1H-pyrazolo[4,3-b]pyridine]",16.7,2450,17.3,–
> 10,> 10,"CN(C)c1cncc(-c2ccc3[nH]nc(-c4cc5c(-c6ccoc6)ccnc5[nH]4)c3n2)c1 [Compound 315, 5-(3-(4-(Furan-3-yl)-1H-pyrrolo[2,3-b]pyridin-2-yl)-1H-pyrazolo[4,3-b]pyridin-5-yl)-N,N-dimethylpyridin-3-amine]",6.6,5520,6.1,–
> 10,> 10,"CN(C)CCOc1cncc(-c2ccc3[nH]nc(-c4cc5c(-c6cccnc6)ccnc5[nH]4)c3n2)c1 [Compound 563, N,N-Dimethyl-2-((5-(3-(4-(pyridin-3-yl)-1H-pyrrolo[2,3-b]pyridin-2-yl)-1H-pyrazolo[4,3-b]pyridin-5-yl)pyridin-3-yl)oxy)ethan-1-amine]",7.2,3040,0,–
> 10,> 10,"c1cc(-c2ccnc3[nH]c(-c4n[nH]c5ccc(-c6cncc(OCCN7CCCC7)c6)nc45)cc23)ccn1 [Compound 578, 3-(4-(Pyridin-4-yl)-1H-pyrrolo[2,3-b]pyridin-2-yl)-5-(5-(2-(pyrrolidin-1-yl)ethoxy)pyridin-3-yl)-1H-pyrazolo[4,3-b]pyridine]",7.7,1240,14.7,–
